Assay results: patent US20140113898A1, “BISARYLSULFONE AND DIALKYLARYLSULFONE COMPOUNDS AS CALCIUM CHANNEL BLOCKERS” (Zalicus Pharmaceuticals Ltd., priority 2010, published 2014)
Like-named read-outs stand apart in the source and are kept apart here.

Legend:
Assay type in all cases: cell-based
CaV2.2 = target: T1, CaV2.2 (Homo sapiens, UniProt Q00975); assay: High-throughput CaV2.2/Kir2.3 FLIPR fluorescent assay; conditions: Fluo-4 FLIPR, closed or inactivated state not stated, read-out: FLIPR data CaV2.2
T1 construct: expressed in transfected cells; host or cells: unnamed doxycycline-inducible cell line
Outline: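 Doxycycline-induced cells moved to 29 °C on assay day and were loaded with 4.4 μM Fluo-4. They were held in 2 mM KCl (closed state) or 12.5 mM KCl (inactivated state) buffer, pH 7.4, then depolarized with 130 mM KCl. Fluorescence was read 3 min on FLIPR, and IC50 was obtained from logistic fits.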

CaV3.1 = target: T2, CaV3.1 (Homo sapiens, UniProt O43497); assay: High-throughput CaV3.1 T-type FLIPR fluorescent assay; conditions: Fluo-4 FLIPR
T2 construct: expressed in transfected cells; host or cells: unnamed doxycycline-inducible cell line
Outline: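 Doxycycline-induced CaV3.1 cells were loaded with Fluo-4 at 29 °C and pre-incubated with compound for 20 min at 29 °C in low-Ca2+ buffer (0.001 mM CaCl2, pH 7.2). Calcium entry was triggered by buffer containing 6 mM CaCl2, and Fluo-4 fluorescence was recorded on FLIPR for 3 min. IC50 came from logistic fits.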

CaV3.2 = target: T3, CaV3.2 (Homo sapiens, UniProt O95180); assay: High-throughput CaV3.2/Kir2.3 T-type FLIPR fluorescent assay; conditions: Fluo-4 FLIPR, closed or inactivated state not stated
T3 construct: expressed in transfected cells; host or cells: unnamed doxycycline-inducible cell line
Outline: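 Doxycycline-induced cells loaded with Fluo-4, preincubated 20 min at 29°C with compound in 2 mM KCl (closed-state) or 7.6 mM KCl (inactivated-state) buffer, pH 7.4. Calcium entry triggered by 12 mM or 14.5 mM KCl respectively; fluorescence read 3 min by FLIPR, IC50 from logistic fit.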

T3 sequence (O95180 whole entry): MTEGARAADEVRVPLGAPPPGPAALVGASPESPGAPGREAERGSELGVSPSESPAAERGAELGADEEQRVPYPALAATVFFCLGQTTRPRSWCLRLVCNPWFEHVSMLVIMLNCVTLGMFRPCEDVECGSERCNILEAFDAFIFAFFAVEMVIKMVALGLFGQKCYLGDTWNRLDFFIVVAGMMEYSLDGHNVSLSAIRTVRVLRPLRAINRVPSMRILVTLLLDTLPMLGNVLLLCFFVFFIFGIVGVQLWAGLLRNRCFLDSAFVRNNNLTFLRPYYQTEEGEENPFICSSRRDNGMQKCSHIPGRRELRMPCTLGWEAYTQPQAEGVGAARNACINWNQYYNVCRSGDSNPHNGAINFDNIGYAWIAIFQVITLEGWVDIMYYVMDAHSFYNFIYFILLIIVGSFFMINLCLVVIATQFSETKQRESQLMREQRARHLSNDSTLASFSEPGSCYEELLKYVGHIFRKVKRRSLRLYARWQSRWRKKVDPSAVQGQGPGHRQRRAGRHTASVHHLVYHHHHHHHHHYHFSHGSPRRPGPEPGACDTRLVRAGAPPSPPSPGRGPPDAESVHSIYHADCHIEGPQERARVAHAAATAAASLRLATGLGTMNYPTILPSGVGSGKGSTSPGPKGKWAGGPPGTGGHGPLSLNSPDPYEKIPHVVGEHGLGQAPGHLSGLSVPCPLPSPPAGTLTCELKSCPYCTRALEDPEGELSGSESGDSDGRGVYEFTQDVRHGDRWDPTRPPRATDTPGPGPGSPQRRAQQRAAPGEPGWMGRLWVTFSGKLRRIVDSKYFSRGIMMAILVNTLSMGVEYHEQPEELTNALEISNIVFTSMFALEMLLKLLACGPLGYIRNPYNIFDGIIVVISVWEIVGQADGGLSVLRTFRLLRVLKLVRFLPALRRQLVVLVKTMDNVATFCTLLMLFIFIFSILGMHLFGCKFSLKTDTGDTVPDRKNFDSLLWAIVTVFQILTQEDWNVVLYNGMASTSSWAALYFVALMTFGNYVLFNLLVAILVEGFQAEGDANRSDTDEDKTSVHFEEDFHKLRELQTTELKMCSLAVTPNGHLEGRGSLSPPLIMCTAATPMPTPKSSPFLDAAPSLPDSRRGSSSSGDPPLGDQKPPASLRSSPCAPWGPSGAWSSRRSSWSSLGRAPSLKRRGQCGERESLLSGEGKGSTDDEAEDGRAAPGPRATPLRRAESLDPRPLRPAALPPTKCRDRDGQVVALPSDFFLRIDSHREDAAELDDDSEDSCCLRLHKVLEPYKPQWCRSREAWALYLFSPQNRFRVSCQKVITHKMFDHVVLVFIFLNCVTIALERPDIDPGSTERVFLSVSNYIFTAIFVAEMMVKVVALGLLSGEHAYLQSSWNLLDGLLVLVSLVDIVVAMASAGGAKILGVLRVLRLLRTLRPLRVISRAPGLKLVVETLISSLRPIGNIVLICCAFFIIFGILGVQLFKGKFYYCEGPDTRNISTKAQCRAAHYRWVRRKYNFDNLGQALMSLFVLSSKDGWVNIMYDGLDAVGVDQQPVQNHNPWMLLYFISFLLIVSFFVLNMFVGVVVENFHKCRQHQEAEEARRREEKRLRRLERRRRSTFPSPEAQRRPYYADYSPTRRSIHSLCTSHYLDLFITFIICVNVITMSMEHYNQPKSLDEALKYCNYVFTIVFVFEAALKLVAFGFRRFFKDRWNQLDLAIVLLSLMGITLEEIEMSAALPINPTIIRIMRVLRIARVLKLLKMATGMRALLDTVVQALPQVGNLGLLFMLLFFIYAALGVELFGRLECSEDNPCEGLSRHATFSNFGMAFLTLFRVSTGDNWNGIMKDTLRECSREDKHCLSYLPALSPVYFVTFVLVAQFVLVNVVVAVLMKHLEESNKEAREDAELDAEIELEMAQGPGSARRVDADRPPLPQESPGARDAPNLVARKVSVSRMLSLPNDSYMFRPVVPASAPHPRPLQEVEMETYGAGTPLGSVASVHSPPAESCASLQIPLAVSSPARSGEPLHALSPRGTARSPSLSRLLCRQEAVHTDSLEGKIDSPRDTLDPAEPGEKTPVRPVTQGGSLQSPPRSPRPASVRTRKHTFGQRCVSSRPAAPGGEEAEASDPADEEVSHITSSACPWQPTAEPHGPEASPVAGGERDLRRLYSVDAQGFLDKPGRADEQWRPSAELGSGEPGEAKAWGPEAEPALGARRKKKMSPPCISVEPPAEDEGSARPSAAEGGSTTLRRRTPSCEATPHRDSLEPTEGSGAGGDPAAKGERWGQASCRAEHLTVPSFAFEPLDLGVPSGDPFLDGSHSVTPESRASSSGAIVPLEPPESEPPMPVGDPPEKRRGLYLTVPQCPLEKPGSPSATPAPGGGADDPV
T2 sequence (O43497 whole entry): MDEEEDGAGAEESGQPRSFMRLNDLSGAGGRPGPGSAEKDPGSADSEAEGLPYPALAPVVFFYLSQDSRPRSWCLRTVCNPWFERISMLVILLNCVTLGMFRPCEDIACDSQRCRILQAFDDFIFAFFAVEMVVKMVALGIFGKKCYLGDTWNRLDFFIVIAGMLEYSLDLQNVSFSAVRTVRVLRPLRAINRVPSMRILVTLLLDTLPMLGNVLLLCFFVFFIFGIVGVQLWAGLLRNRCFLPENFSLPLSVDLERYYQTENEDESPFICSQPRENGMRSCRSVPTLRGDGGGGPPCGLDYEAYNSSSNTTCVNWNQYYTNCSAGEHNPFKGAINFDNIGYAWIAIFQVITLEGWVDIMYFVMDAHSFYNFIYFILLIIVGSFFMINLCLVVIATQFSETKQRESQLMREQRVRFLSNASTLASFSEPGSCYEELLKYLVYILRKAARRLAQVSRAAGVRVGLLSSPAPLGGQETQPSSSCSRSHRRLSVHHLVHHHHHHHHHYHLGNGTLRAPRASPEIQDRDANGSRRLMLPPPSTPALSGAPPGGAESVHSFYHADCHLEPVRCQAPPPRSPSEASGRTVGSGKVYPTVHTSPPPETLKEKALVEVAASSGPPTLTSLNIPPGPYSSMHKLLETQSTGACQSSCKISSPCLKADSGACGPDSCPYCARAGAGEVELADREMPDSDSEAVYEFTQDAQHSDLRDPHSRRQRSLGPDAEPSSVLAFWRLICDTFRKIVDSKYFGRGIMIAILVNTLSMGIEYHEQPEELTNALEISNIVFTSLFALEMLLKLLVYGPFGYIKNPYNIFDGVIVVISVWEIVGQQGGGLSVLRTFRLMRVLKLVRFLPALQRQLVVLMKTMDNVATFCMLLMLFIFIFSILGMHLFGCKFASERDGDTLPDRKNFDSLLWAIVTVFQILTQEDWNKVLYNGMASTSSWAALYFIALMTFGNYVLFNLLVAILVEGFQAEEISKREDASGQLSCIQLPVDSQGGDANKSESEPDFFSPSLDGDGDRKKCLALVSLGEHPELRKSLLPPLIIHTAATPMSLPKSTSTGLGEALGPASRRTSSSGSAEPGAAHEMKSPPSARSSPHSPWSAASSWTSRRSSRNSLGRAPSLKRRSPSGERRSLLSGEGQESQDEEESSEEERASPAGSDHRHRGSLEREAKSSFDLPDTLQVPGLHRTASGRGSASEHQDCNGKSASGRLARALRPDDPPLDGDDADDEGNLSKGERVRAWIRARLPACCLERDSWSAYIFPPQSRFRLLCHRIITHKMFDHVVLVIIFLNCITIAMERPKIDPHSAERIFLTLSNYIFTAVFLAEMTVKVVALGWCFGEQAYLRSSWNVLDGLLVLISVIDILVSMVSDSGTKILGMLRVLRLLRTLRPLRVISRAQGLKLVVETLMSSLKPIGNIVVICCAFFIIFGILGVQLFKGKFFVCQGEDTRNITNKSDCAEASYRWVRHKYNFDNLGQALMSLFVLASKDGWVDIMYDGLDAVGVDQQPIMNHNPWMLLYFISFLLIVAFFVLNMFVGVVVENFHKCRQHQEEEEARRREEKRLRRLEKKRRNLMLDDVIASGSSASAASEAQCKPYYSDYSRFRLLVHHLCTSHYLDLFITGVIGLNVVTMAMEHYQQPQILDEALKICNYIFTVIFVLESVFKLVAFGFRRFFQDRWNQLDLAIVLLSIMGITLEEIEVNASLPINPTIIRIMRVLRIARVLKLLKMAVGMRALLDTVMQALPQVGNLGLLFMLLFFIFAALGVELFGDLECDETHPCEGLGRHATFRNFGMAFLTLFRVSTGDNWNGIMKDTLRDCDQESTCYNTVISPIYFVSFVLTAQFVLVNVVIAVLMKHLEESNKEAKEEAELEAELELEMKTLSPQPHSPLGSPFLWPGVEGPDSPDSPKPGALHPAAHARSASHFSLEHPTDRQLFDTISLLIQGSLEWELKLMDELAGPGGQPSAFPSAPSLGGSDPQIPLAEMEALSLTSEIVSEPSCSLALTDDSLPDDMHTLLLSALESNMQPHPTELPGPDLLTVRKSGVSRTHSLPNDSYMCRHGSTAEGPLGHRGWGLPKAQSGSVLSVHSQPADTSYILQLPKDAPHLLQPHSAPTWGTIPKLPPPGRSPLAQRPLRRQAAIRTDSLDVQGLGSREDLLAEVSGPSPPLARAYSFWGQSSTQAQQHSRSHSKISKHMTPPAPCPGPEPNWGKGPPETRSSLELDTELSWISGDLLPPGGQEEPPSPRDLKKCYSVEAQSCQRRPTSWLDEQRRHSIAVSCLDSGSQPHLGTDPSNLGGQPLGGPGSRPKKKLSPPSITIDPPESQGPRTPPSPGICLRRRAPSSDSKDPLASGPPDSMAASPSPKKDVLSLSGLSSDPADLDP

IC50 (CaV2.2; Table 4)	IC50 (CaV3.1; Table 4)	IC50 (CaV3.2; Table 4)	IC50 (CaV2.2; Table 5)	IC50 (CaV3.1; Table 5)	IC50 (CaV3.2; Table 5)	SMILES
970 nM	1580 nM	1740 nM	–	–	–	O=C(NCc1ccc(S(=O)(=O)c2cccc(C(F)(F)F)c2)cn1)c1cc(F)cc(Cl)c1 [Compound 89, 3-chloro-5-fluoro-N-((5-((3-(trifluoromethyl)phenyl)sulfonyl)pyridin-2-yl)methyl)benzamide]
600 nM	1540 nM	880 nM	–	–	–	O=C(NCc1ccc(S(=O)(=O)c2cccc(C(F)(F)F)c2)cn1)c1ccc(F)c(Cl)c1 [Compound 104, 3-chloro-4-fluoro-N-((5-((3-(trifluoromethyl)phenyl)sulfonyl)pyridin-2-yl)methyl)benzamide]
–	–	–	200 nM	5800 nM	4310 nM	CC(C)(C(=O)Nc1ccc(Oc2ccc(F)c(C(F)(F)F)c2)nc1)S(=O)(=O)c1cccc(OC(F)(F)F)c1 [Compound 119, N-(6-(4-fluoro-3-(trifluoromethyl)phenoxy)pyridin-3-yl)-2-methyl-2-((3-(trifluoromethoxy)phenyl)sulfonyl)propanamide]
–	–	–	660 nM	4900 nM	1150 nM	CC(C)(C(=O)Nc1ccc(Oc2ccc(F)c(Cl)c2)nc1)S(=O)(=O)c1cccc(OC(F)(F)F)c1 [Compound 121, N-(6-(3-chloro-4-fluorophenoxy)pyridin-3-yl)-2-methyl-2-((3-(trifluoromethoxy)phenyl)sulfonyl)propanamide]
–	–	–	700 nM	4890 nM	1640 nM	CC(C)(C(=O)Nc1ccc(Oc2ccc(C(F)(F)F)nc2)nc1)S(=O)(=O)c1cccc(OC(F)(F)F)c1 [Compound 122, 2-methyl-2-((3-(trifluoromethoxy)phenyl)sulfonyl)-N-(6-((6-(trifluoromethyl)pyridin-3-yl)oxy)pyridin-3-yl)propanamide]
–	–	–	920 nM	4990 nM	3010 nM	CC(C)(C(=O)Nc1ccc(Oc2ccc(C(F)(F)F)cn2)nc1)S(=O)(=O)c1cccc(OC(F)(F)F)c1 [Compound 123, 2-methyl-2-((3-(trifluoromethoxy)phenyl)sulfonyl)-N-(6-((5-(trifluoromethyl)pyridin-2-yl)oxy)pyridin-3-yl)propanamide]
–	–	–	750 nM	4250 nM	5620 nM	CC(C)(C(=O)NCc1cccc(C(F)(F)F)c1)S(=O)(=O)c1cccc(C(F)(F)F)c1 [Compound 124, 2-methyl-N-(3-(trifluoromethyl)benzyl)-2-((3-(trifluoromethyl)phenyl)sulfonyl)propanamide]
–	–	–	790 nM	6660 nM	5210 nM	CC(C)(C(=O)NCCc1c[nH]c2ccc(F)cc12)S(=O)(=O)c1cccc(C(F)(F)F)c1 [Compound 131, N-(2-(5-fluoro-1H-indol-3-yl)ethyl)-2-methyl-2-((3-(trifluoromethyl)phenyl)sulfonyl)propanamide]
–	–	–	1160 nM	2160 nM	4960 nM	CC(C)(C(=O)N1CCC(c2cccc(Cl)c2)CC1)S(=O)(=O)c1cccc(C(F)(F)F)c1 [Compound 133, 1-(4-(3-chlorophenyl)piperidin-1-yl)-2-methyl-2-((3-(trifluoromethyl)phenyl)sulfonyl)propan-1-one]
–	–	–	1290 nM	7950 nM	5840 nM	CN(CCc1c[nH]c2ccc(F)cc12)C(=O)C(C)(C)S(=O)(=O)c1cccc(C(F)(F)F)c1 [Compound 135, N-(2-(5-fluoro-1H-indol-3-yl)ethyl)-N,2-dimethyl-2-((3-(trifluoromethyl)phenyl)sulfonyl)propanamide]
–	–	–	1610 nM	4530 nM	3000 nM	CC(C)(C(=O)NC1CCN(c2ccc(C(F)(F)F)cc2)CC1)S(=O)(=O)c1cccc(C(F)(F)F)c1 [Compound 137, 2-methyl-N-(1-(4-(trifluoromethyl)phenyl)piperidin-4-yl)-2-((3-(trifluoromethyl)phenyl)sulfonyl)propanamide]
–	–	–	410 nM	8220 nM	5090 nM	CC(C)(C(=O)NCC(O)c1ccc(C(F)(F)F)cc1)S(=O)(=O)c1cccc(C(F)(F)F)c1 (stereo not drawn) [Compound 140, N-(2-hydroxy-2-(4-(trifluoromethyl)phenyl)ethyl)-2-methyl-2-((3-(trifluoromethyl)phenyl)sulfonyl)propanamide]

Second part, the compound before the results:

SMILES	IC50 (CaV2.2; Table 4)	IC50 (CaV3.1; Table 4)	IC50 (CaV3.2; Table 4)	IC50 (CaV2.2; Table 5)	IC50 (CaV3.1; Table 5)	IC50 (CaV3.2; Table 5)
O=C(NCc1ccc(S(=O)(=O)c2cccc(C(F)(F)F)c2)cn1)c1ccc(C(F)(F)F)nc1 [Compound 90, 6-(trifluoromethyl)-N-((5-((3-(trifluoromethyl)phenyl)sulfonyl)pyridin-2-yl)methyl)nicotinamide]	610 nM	900 nM	2070 nM	–	–	–
O=C(NCc1ccc(S(=O)(=O)c2cccc(C(F)(F)F)c2)cn1)c1ccc(C(F)(F)F)cn1 [Compound 91, 5-(trifluoromethyl)-N-((5-((3-(trifluoromethyl)phenyl)sulfonyl)pyridin-2-yl)methyl)picolinamide]	840 nM	1850 nM	1290 nM	–	–	–
CS(=O)(=O)c1cc(C(=O)NCc2ccc(S(=O)(=O)c3cccc(C(F)(F)F)c3)cn2)cc(C(F)(F)F)n1 [Compound 94, 2-(methylsulfonyl)-6-(trifluoromethyl)-N-((5-((3-(trifluoromethyl)phenyl)sulfonyl)pyridin-2-yl)methyl)isonicotinamide]	820 nM	1630 nM	1450 nM	–	–	–
CC(C)S(=O)(=O)c1cc(C(F)(F)F)cnc1C(=O)NCc1ccc(S(=O)(=O)c2cccc(C(F)(F)F)c2)cn1 [Compound 96, 3-(isopropylsulfonyl)-5-(trifluoromethyl)-N-((5-((3-(trifluoromethyl)phenyl)sulfonyl)pyridin-2-yl)methyl)picolinamide]	640 nM	1560 nM	2140 nM	–	–	–
CS(=O)(=O)c1cc(C(F)(F)F)ccc1C(=O)NCc1ccc(S(=O)(=O)c2cccc(C(F)(F)F)c2)cn1 [Compound 99, 2-(methylsulfonyl)-4-(trifluoromethyl)-N-((5-((3-(trifluoromethyl)phenyl)sulfonyl)pyridin-2-yl)methyl)benzamide]	910 nM	1270 nM	1320 nM	–	–	–
O=C(NCc1ccc(S(=O)(=O)c2cccc(C(F)(F)F)c2)cn1)c1cn2cc(C(F)(F)F)ccc2n1 [Compound 103, 6-(trifluoromethyl)-N-((5-((3-(trifluoromethyl)phenyl)sulfonyl)pyridin-2-yl)methyl)imidazo[1,2-a]pyridine-2-carboxamide]	830 nM	2060 nM	1250 nM	–	–	–
O=C(NCc1ccc(S(=O)(=O)c2cccc(C(F)(F)F)c2)cn1)[C@H]1C[C@@H](C2CCCCC2)CN1 [Compound 107, (2R,4S)-4-cyclohexyl-N-((5-((3-(trifluoromethyl)phenyl)sulfonyl)pyridin-2-yl)methyl)pyrrolidine-2-carboxamide]	450 nM	6980 nM	2090 nM	–	–	–
Cn1nc(C(F)(F)F)cc1C(=O)NCc1cc(S(=O)(=O)c2cccc(C(F)(F)F)c2)ccn1 [Compound 109, 1-methyl-3-(trifluoromethyl)-N-((4-((3-(trifluoromethyl)phenyl)sulfonyl)pyridin-2-yl)methyl)-1H-pyrazole-5-carboxamide]	820 nM	6530 nM	3970 nM	–	–	–
O=C(NCc1cc(S(=O)(=O)c2cccc(C(F)(F)F)c2)ccn1)[C@@H]1C[C@@H](C2CCCCC2)CN1 [Compound 118, (2S,4S)-4-cyclohexyl-N-((4-((3-(trifluoromethyl)phenyl)sulfonyl)pyridin-2-yl)methyl)pyrrolidine-2-carboxamide]	760 nM	4760 nM	2400 nM	–	–	–
CC(C)(C(=O)N1CCN(c2cccc(C(F)(F)F)c2)CC1)S(=O)(=O)c1cccc(C(F)(F)F)c1 [Compound 132, 2-methyl-1-(4-(3-(trifluoromethyl)phenyl)piperazin-1-yl)-2-((3-(trifluoromethyl)phenyl)sulfonyl)propan-1-one]	–	–	–	1210 nM	4080 nM	3630 nM
CC(C)(C(=O)N1CCN(c2cc(Cl)cc(Cl)c2)CC1)S(=O)(=O)c1cccc(C(F)(F)F)c1 [Compound 134, 1-(4-(3,5-dichlorophenyl)piperazin-1-yl)-2-methyl-2-((3-(trifluoromethyl)phenyl)sulfonyl)propan-1-one]	–	–	–	1160 nM	8690 nM	7580 nM
CC(C)(C(=O)N1CCC(c2ccc(C(F)(F)F)cc2)CC1)S(=O)(=O)c1cccc(C(F)(F)F)c1 [Compound 136, 2-methyl-1-(4-(4-(trifluoromethyl)phenyl)piperidin-1-yl)-2-((3-(trifluoromethyl)phenyl)sulfonyl)propan-1-one]	–	–	–	390 nM	4400 nM	2440 nM
CC(C)(CNC(=O)C(C)(C)S(=O)(=O)c1cccc(C(F)(F)F)c1)S(=O)(=O)c1cccc(C(F)(F)F)c1 [Compound 149, 2-methyl-N-(2-methyl-2-((3-(trifluoromethyl)phenyl)sulfonyl)propyl)-2-((3-(trifluoromethyl)phenyl)sulfonyl)propanamide]	–	–	–	460 nM	3850 nM	2860 nM
